What was measured:
[1] = target: T1, CCK receptor (brain, cortex) (Cavia porcellus, UniProt H0VZC5); assay: biochemical; type: binding, guinea pig; conditions: guinea pig cortex membranes, 50 pM 125I-CCK-8, 25°C 2 hours; read-out: IC50 ^125I-CCK Brain
T1 construct: the cortex was removed and homogenized in 25 mL ice-cold 0.32 M sucrose; from tissue; host or cells: guinea pig brain cortex P2 membrane pellet
T1 sequence (H0VZC5 1-426): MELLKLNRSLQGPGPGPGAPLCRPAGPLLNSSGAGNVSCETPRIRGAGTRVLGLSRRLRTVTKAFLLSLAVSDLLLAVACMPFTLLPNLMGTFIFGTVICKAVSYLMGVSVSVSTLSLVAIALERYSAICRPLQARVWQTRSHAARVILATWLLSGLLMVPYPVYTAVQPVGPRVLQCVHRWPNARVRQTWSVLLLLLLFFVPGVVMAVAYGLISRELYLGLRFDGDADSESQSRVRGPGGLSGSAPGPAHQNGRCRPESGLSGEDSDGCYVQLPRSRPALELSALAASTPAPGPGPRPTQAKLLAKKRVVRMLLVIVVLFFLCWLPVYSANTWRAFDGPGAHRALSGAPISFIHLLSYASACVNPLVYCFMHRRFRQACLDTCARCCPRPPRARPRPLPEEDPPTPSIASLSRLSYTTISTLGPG
Method: CCK-8 sulphated was radiolabelled and the binding was performed according to the description for the pancreas method with minor modifications.
Male Hartley guinea pigs (300-500g) were sacrificed by decapitation and the cortex was removed and homogenized in 25 mL ice-cold 0.32 M sucrose. The homogenates were centrifuged at 1000 g for 10 minutes and the resulting supernatant was recentrifuged at 20,000 g for 20 minutes. The P₂ pellet was resuspended in binding assay buffer (20mM HEPES, 5 mM MgCl₂, 0.25 mg/ml bacitracin, 1 mM EGTA pH 6.5 at 25°C), using a Teflon (trademark) homogenizer (5 strokes at 500 rpm) to give a final concentration of 10 mg original wet weight/1.2 ml buffer. […] All assays were run in duplicate. The reaction mixtures were incubated at 25°C for 2 hours and then the reaction was terminated by rapid filtration (Brandell 24 well cell harvester) on Whatman GF/C filters with 3 x 5 ml washes of cold 100 mM NaCl. The radioactivity on the filters was counted with a LKB gamma counter.
(§1) Drug displacement studies were performed with at least 10 concentrations of compounds of Formula I and the IC₅₀ values were determined by regression analysis IC₅₀ refers to the concentration of the compound required to inhibit 50% of specific binding of ¹²⁵I-CCK-8.

[2] = target: T2, Gastrin Receptor (Cavia porcellus, UniProt H0VZC5); assay: Gastrin Receptor Binding in Guinea Pig Gastric Glands, 125I-gastrin; design: from tissue; host or cells: isolated guinea pig gastric mucosal glands; conditions: 0.1 nM 125I-gastrin, 25°C 30 minutes
T2 sequence (H0VZC5 1-426): T1 sequence (H0VZC5 1-426)
Method: Gastrin antagonist activity of compounds of Formula I was determined using the following assay.
Guinea pig gastric mucosal glands were prepared by the procedure of Chang et. al., Science, 230, 177-179 (1985) with slight modifications. […] The tissues were passed twice through a 5 ml syringe to liberate the gastric glands, and then filtered through Nitex (trademark) #202 gauge nylon mesh. The filtered glands were centrifuged at 272 g for 5 minutes and washed twice by resuspension in 25 ml buffer and centrifugation.
The washed guinea pig gastric glands prepared as above were resuspended in 25 ml of standard buffer. For binding studies, to 250 µl of gastric glands, 30 µl of buffer (for total binding) or gastrin (3 µM final concentration, for nonspecific binding) or test compound and 20 µl of ¹²⁵I-gastrin (NEN, 2200 Ci/mmole, 0.1 nM final concentration) were added. All assays were run in triplicate. […] The reaction mixtures, after incubation at 25°C for 30 minutes in a shaking water bath were rapidly filtered (Brandell 24 well cell harvester) over Whatman G/F B filters presoaked in assay buffer and immediately washed further with 3 x 4 ml of 100 mM ice cold NaCl. The radioactivity on the filters was measured using a LKB gamma counter.

[3] = target: T3, CCK receptor (pancreas) (Rattus norvegicus, UniProt P30551); assay: biochemical; type: binding; conditions: rat pancreas membranes, 50 pM 125I-CCK-8, 25°C 2 hours
T3 construct: The whole pancreas was dissected free of fat tissue and was homogenized; from tissue; host or cells: rat pancreas membrane homogenate
T3 sequence (P30551 1-444): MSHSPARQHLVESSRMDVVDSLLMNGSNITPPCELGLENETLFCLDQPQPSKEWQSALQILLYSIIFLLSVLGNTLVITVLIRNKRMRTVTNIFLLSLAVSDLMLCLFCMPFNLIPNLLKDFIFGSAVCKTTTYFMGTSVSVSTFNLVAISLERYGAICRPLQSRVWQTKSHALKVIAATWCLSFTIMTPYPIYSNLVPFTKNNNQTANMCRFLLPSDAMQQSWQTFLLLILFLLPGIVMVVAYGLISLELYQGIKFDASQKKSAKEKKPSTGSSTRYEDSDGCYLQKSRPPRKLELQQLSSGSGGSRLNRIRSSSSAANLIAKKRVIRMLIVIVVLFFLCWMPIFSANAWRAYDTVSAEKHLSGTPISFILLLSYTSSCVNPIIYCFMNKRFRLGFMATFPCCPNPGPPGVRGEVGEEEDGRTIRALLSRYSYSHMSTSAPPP
Method: CCK-8 sulphated was radiolabelled with ¹²⁵I-Bolton Hunter reagent (2000 Ci/mmole). Receptor binding was performed according to Chang and Lotti (Proc. Natl. Acad. Sci. 83, 4923-4926, 1986) with minor modifications.
Male Sprague-Dawley rats (150-200g) were sacrificed by decapitation. The whole pancreas was dissected free of fat tissue and was homogenized in 25 volumes of ice-cold 10 mM N-2-hydroxyethyl-piperazine-N′-2-ethane sulphonic acid (HEPES) buffer with 0.1% soya bean trypsin inhibitor (pH 7.4 at 25°C) with a Kinematica Polytron. The homogenates were centrifuged at 47,800 g for 10 min. Pellets were resuspended in 10 volumes of binding assay buffer (20mM (HEPES)), 1mM ethylene glycol-bis-(β-aminoethylether-N,N′-tetraacetic acid) (EGTA), 5mM MgCl₂, 150 mM NaCl, bacitracin 0.25 mg/ml, soya bean trypsin inhibitor 0.1 mg/ml, and bovine serum albumin 2 mg/ml pH 6.5 at 25°C) using a Teflon (trademark) homogenizer, 15 strokes at 500 rpm. The homogenate was further diluted in binding assay buffer to give a final concentration of 0.5 mg original wet weight/1 ml buffer. […] All assays were run in duplicate. The reaction mixtures were incubated at 25°C for 2 hours and the reaction terminated by rapid filtration (Brandell 24 well cell harvester) over Whatman GF/C filters, washing 3 x 4 mls with ice-cold 100 Mm NaCl. The radioactivity on the filters was counted with a LKB gamma counter.
as §1

Row | SMILES | IC50 [1] [nM] | IC50 [2] [nM] | IC50 [3] [nM]
1 | Cc1cccc(NC(=O)NC2N=C(C3CCCCC3)c3ccccc3N(C)C2=O)c1 (racemic) [Example 1, N-[3(R,S)-5-Cyclohexyl-2,3-dihydro-1-methyl-2-oxo-1H-1,4-benzodiazepin-3-yl] N′-[3-methylphenyl] urea] | 2.2 | 0.83 | 
2 | Cc1cccc(NC(=O)NC2N=C(C3CCCCC3)c3ccccc3N(C)C2=O)c1 (single isomer, unassigned) [7 (Peak A)] | 0.47 | 0.92 | 
3 | CC(C)C(=O)NS(=O)(=O)c1cccc(NC(=O)NC2N=C(C3CCCCC3)c3ccccc3N(C)C2=O)c1 (racemic) [Example 11, N-[3(R,S)-5-Cyclohexyl-2,3-dihydro-1-methyl-2-oxo-1H-1,4-benzodiazepin-3-yl] N′-(3-(isopropylcarbonylaminosulphonyl)phenyl] urea] | 0.32 |  | 118
4 | CN1C(=O)C(NC(=O)Nc2cccc(-c3cc(=O)c(O)co3)c2)N=C(C2CCCCC2)c2ccccc21 (racemic) [Example 43, N-[3(R,S)-5-Cyclohexyl-2,3-dihydro-1-methyl-2-oxo-1H-1,4-benzodiazepin-3-yl] N′-[3-(5-hydroxy-4-pyron-2-yl)phenyl] urea] | 2.1 |  | 17.8
5 | CCS(=O)(=O)NC(=O)c1cccc(NC(=O)NC2N=C(C3CCCCC3)c3ccccc3N(C)C2=O)c1 (racemic) [Example 23, N-[3(R,S)-5-Cyclohexyl-2,3-dihydro-1-methyl-2-oxo-1H-1,4-benzodiazepin-3-yl] N′-[3-(ethylsulphonylaminocarbonyl)phenyl]urea] | 0.96 |  | 5
6 | CC(C)S(=O)(=O)NC(=O)c1cccc(NC(=O)NC2N=C(C3CCCCC3)c3ccccc3N(C)C2=O)c1 (single isomer, unassigned) [24 (Peak A)] |  | 0.7 | 1180
7 | CCCN1C(=O)C(NC(=O)Nc2cccc(C(=O)NS(=O)(=O)C(C)C)c2)N=C(C2CCCC2)c2ccccc21 (racemic) [Example 36, N-[3(R,S)-5-Cyclopentyl-2,3-dihydro-1-propyl-2-oxo-1H-1,4-benzodiazepin-3-yl] N′-[3-(isopropylsulphonylaminocarbonyl)phenyl] urea] | 1.2 |  | 1300
8 | CN1C(=O)C(NC(=O)Nc2cccc(S(=O)(=O)Nc3nccs3)c2)N=C(C2CCCCC2)c2ccccc21 (racemic) [Example 26, N-[3(R,S)-5-Cyclohexyl-2,3-dihydro-1-methyl-2-oxo-1H-1,4-benzodiazepin-3-yl] N′-[3-(thiazol-2-ylaminosulphonyl)phenyl]urea] | 2.3 |  | 60
9 | CCN1C(=O)C(NC(=O)Nc2cccc(C(=O)NS(=O)(=O)C(C)C)c2)N=C(C2CCCC2)c2ccccc21 (racemic) [Example 30, N-[3(R,S)-5-Cyclopentyl-2,3-dihydro-1-ethyl-2-oxo-1H-1,4-benzodiazepin-3-yl] N′-[3-(isopropylsulphonylaminocarbonyl)phenyl] urea] | 3.2 |  | 170
10 | CC(C)S(=O)(=O)NC(=O)c1cccc(NC(=O)NC2N=C(C3CCCCC3)c3ccccc3N(C)C2=O)c1 (racemic) [Example 12, N-[3(R,S)-5-Cyclohexyl-2,3-dihydro-1-methyl-2-oxo-1H-1,4-benzodiazepin-3-yl] N′-[3-(isopropylsulphonylaminocarbonyl)phenyl] urea] |  | 3.24 | 12.4
11 | CN1C(=O)C(NC(=O)Nc2cccc(-c3nnn(C)n3)c2)N=C(C2CCCCC2)c2ccccc21 (racemic) [Example 28, N-[3(R,S)-5-Cyclohexyl-2,3-dihydro-1-methyl-2-oxo-1H-1,4-benzodiazepin-3-yl] N′-[3-(2-methyltetrazol-5-yl)phenyl]urea] | 4 |  | 8.3
12 | CN1C(=O)C(NC(=O)Nc2cccc(C(=O)NS(=O)(=O)C(F)(F)F)c2)N=C(C2CCCCC2)c2ccccc21 (racemic) [Example 18, N-[3(R,S)-5-Cyclohexyl-2,3-dihydro-1-methyl-2-oxo-1H-1,4-benzodiazepin-3-,yl] N′-[3-(trifluoromethylsulphonylaminocarbonyl)phenyl] urea] | 0.09 |  | 13.8
13 | CCN1C(=O)C(NC(=O)Nc2cccc(-c3nn[nH]n3)c2)N=C(C2CCCC2)c2ccccc21 (racemic) [Example 5, N-[3(R,S)-5-Cyclopentyl-2,3-dihydro-1-ethyl-2-oxo-1H-1,4-benzodiazepin-3-yl] N′-[3-tetrazol-5-ylphenyl]urea] | 0.71 |  | 140
14 | CN1C(=O)C(NC(=O)Nc2cccc(C(=O)NS(=O)(=O)c3ccccc3)c2)N=C(C2CCCCC2)c2ccccc21 (racemic) [Example 14, N-[3(R,S)-5-Cyclohexyl-2,3-dihydro-1-methyl-2-oxo-1H-1,4-benzodiazepin-3-yl] N′-[3-(phenylsulphonylaminocarbonyl)phenyl] urea] | 0.58 |  | 11.1
15 | CCN1C(=O)C(NC(=O)Nc2cccc(C(=O)NS(C)(=O)=O)c2)N=C(C2CCCC2)c2ccccc21 (racemic) [Example 29, N-(3(R,S)-5-Cyclopentyl-2,3-dihydro-1-ethyl-2-oxo-1H-1,4-benzodiazepin-3-yl] N′-(3-(methylsulphonylaminocarbonyl)phenyl] urea] | 6.3 |  | 22
16 | CC(C)S(=O)(=O)NC(=O)c1cccc(NC(=O)NC2N=C(C3CCCC3)c3ccccc3N(C)C2=O)c1 (racemic) [Example 38, N-(3(R,S)-5-Cyclopentyl-2,3-dihydro-1-methyl-2-oxo-1H-1,4-benzodiazepin-3-yl] N′-[3-(isopropylsulphonylaminocarbonyl)phenyl] urea] | 6.8 |  | 300

Reference: patent EP0514133A1, “Benzodiazepine derivatives, compositions containing them and their use in therapy” (priority 1991, dated 1992)
